Measurements as given in US20050053704A1, “Acidic composition and its uses” (Mionix Corporation, priority 2003, published 2005).
Read-outs that look alike come from different tables or passages of the source.

Experiments:
L. monocytogenes [1] = conditions: cited from earlier work
L. monocytogenes [2] = conditions: dipping in 5% acid, refrigerated storage; cited from earlier work
[3] = Contact of acidic solution with human skin; conditions: solution with a pH of less than 0.5

Structure (SMILES): CC(O)C(=O)[O-].[Na+] (stereo not drawn) [Sodium lactate]
- Effect on growth of L. monocytogenes (L. monocytogenes [1]; 3 or 4% compared to 0 or 2%, cooked beef stored at 10° C. (Miller and Acuff 1994)): effective against the growth

Structure (SMILES): CC(=O)O [acetic acid]
- Effect on L. monocytogenes of dipping in acid (L. monocytogenes [2]): not only killed, but also prevented from growing during 90 days of refrigerated storage

Structure (SMILES): CC(O)C(=O)O (stereo not drawn) [lactate]
- Effect on growth of L. monocytogenes (L. monocytogenes [1]; lactate (4%), sterile broth, chicken and beef (Shelef and Yang 1991)): growth suppression
- Listeristatic effect, L. monocytogenes strain Scott A (L. monocytogenes [1]; lactate concentrations less than 4%, meat model system (Chen and Shelef 1992)): not listeristatic

Structure (SMILES): CC(O)C(=O)O (stereo not drawn) [lactic acid]
- Effect on L. monocytogenes of dipping in acid (L. monocytogenes [2]): not only killed, but also prevented from growing during 90 days of refrigerated storage

Structure (SMILES): O=S(=O)(O)O [sulfuric acid]
- Irritation of a hand put into the solution [3]: an irritation would occur within a relatively short span of time
